{"source": "patent US20260116910A1", "about": "“POLYCYCLIC COMPOUNDS AND METHODS THEREOF” (HEPAITECH (BEIJING) BIOPHARMA TECHNOLOGY CO., LTD., priority 2021, published 2026)", "key": {"human FXR (NR1H4)": {"target": "T1, human FXR (NR1H4) (Homo sapiens, UniProt Q96RI1)", "T1 sequence (Q96RI1 1-476 isoform Q96RI1-1)": "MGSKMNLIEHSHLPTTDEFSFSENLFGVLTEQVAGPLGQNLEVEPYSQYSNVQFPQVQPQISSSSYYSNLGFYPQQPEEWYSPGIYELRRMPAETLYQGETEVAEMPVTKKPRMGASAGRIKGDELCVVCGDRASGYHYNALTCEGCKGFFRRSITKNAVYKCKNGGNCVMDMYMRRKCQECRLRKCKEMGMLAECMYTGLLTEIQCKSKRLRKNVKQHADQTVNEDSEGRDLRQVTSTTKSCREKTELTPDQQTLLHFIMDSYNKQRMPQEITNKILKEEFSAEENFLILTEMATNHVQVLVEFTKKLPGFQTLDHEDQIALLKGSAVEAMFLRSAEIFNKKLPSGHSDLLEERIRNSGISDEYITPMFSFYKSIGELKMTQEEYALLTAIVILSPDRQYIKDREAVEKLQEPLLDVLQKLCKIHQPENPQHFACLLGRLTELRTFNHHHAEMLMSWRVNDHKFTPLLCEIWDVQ", "assay": "Human FXR (NR1H4) agonist assessment, FXRE-NanoLuc reporter in HEK293T cells", "type": "cell-based", "details": "FXR activation, HEK293T FXRE-NanoLuc reporter, 24 hr; for EC50: read-out: EC50", "outline": "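Read-out was NanoLuc luminescence in culture medium, measured 5 min after adding coelenterazine. Cells were HEK293T stably carrying human FXR and an FXRE reporter, exposed to compound for 24 hr at 37 °C. Vehicle was 0.01% DMSO. EC50 was obtained from sigmoid fits of gradient dilutions.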"}, "MRGPRX4": {"target": "MRGPRX4 (Homo sapiens, UniProt Q96LA9)", "sequence (Q96LA9 whole entry)": "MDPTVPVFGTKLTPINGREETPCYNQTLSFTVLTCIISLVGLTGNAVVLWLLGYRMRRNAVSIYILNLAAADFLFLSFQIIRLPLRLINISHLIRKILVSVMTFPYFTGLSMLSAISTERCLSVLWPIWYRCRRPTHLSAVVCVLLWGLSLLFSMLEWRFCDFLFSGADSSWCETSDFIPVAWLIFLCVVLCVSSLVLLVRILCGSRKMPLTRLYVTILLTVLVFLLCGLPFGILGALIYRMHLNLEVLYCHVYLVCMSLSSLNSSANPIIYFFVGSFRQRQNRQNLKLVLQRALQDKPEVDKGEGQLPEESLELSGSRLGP", "assay": "MRGPRX4 activation, Fluo-8 Ca2+ FLIPR assay in HEK293T cells stably expressing MRGPRX4", "type": "cell-based", "details": "for EC50: MRGPRX4 activation, Ca2+ fluorescence, no activation in tested range reported as III, read-out: Activity (EC50 μM)", "outline": "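Response measured as dF/F0: 30 s baseline, then 150 s after compound addition on FLIPR Tetra, in HHBS after 40-60 min room-temperature loading with 2 μM Fluo-8 AM.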"}}}
{"compound": "CC[C@H]1[C@@H](O)[C@@H]2[C@H](CC[C@]3(C)[C@@H]([C@H](C)CC#N)CC[C@@H]23)[C@@]2(C)CCCC[C@@H]12", "note": "[2-4]", "values": [{"measurement": "Efficacy (maximum measured induction of NanoLuc, normalized to CDCA set as 100%)", "setting": "human FXR (NR1H4)", "result": "C (100%<efficacy <=300%)"}, {"measurement": "EC50", "setting": "human FXR (NR1H4)", "result": "> 10", "unit": "µM"}, {"measurement": "MRGPRX4 activation, fluorescence change (dF/F0), Average", "setting": "MRGPRX4; Conc. (Log[M]) −4", "result": 0.008}, {"measurement": "MRGPRX4 activation, fluorescence change (dF/F0), Average", "setting": "MRGPRX4; Conc. (Log[M]) −4.5", "result": "−0.025"}, {"measurement": "MRGPRX4 activation, fluorescence change (dF/F0), Average", "setting": "MRGPRX4; Conc. (Log[M]) −5", "result": "−0.026"}, {"measurement": "MRGPRX4 activation, fluorescence change (dF/F0), Average", "setting": "MRGPRX4; Conc. (Log[M]) −5.5", "result": "−0.018"}, {"measurement": "MRGPRX4 activation, fluorescence change (dF/F0), Average", "setting": "MRGPRX4; Conc. (Log[M]) −6", "result": "−0.037"}, {"measurement": "MRGPRX4 activation, fluorescence change (dF/F0), Average", "setting": "MRGPRX4; Conc. (Log[M]) −7", "result": "−0.025"}, {"measurement": "MRGPRX4 activation, fluorescence change (dF/F0), Average", "setting": "MRGPRX4; Conc. (Log[M]) −8", "result": "−0.038"}, {"measurement": "MRGPRX4 activation, fluorescence change (dF/F0), Average", "setting": "MRGPRX4; Conc. (Log[M]) −9", "result": "−0.037"}, {"measurement": "EC50", "setting": "MRGPRX4", "result": "> 100", "unit": "µM"}]}
{"compound": "CC[C@H]1[C@@H](O)[C@@H]2[C@H](CC[C@]3(C)[C@@H]([C@H](C)CCNC(=O)NS(=O)(=O)N4CCCC4)CC[C@@H]23)[C@@]2(C)CCCC[C@@H]12", "note": "[5-11]", "values": [{"measurement": "Efficacy (maximum measured induction of NanoLuc, normalized to CDCA set as 100%)", "setting": "human FXR (NR1H4)", "result": "C (100%<efficacy <=300%)"}, {"measurement": "EC50", "setting": "human FXR (NR1H4)", "result": "1 to 10", "unit": "µM"}, {"measurement": "MRGPRX4 activation, fluorescence change (dF/F0), Average", "setting": "MRGPRX4; Conc. (Log[M]) −4", "result": 0.057}, {"measurement": "MRGPRX4 activation, fluorescence change (dF/F0), Average", "setting": "MRGPRX4; Conc. (Log[M]) −4.5", "result": 0.030}, {"measurement": "MRGPRX4 activation, fluorescence change (dF/F0), Average", "setting": "MRGPRX4; Conc. (Log[M]) −5", "result": 0.033}, {"measurement": "MRGPRX4 activation, fluorescence change (dF/F0), Average", "setting": "MRGPRX4; Conc. (Log[M]) −5.5", "result": 0.013}, {"measurement": "MRGPRX4 activation, fluorescence change (dF/F0), Average", "setting": "MRGPRX4; Conc. (Log[M]) −6", "result": 0.023}, {"measurement": "MRGPRX4 activation, fluorescence change (dF/F0), Average", "setting": "MRGPRX4; Conc. (Log[M]) −7", "result": 0.067}, {"measurement": "EC50", "setting": "MRGPRX4", "result": "> 100", "unit": "µM"}]}
{"compound": "CC[C@H]1[C@@H](O)[C@@H]2[C@H](CC[C@]3(C)[C@@H]([C@H](C)CCNC(=O)NS(=O)(=O)c4ccc5c(c4)CCN5C(C)=O)CC[C@@H]23)[C@@]2(C)CCCC[C@@H]12", "note": "[5-4]", "values": [{"measurement": "Efficacy (maximum measured induction of NanoLuc, normalized to CDCA set as 100%)", "setting": "human FXR (NR1H4)", "result": "B (300%<efficacy <=400%)"}, {"measurement": "EC50", "setting": "human FXR (NR1H4)", "result": "< 1", "unit": "µM"}, {"measurement": "MRGPRX4 activation, fluorescence change (dF/F0), Average", "setting": "MRGPRX4; Conc. (Log[M]) −4", "result": 0.097}, {"measurement": "MRGPRX4 activation, fluorescence change (dF/F0), Average", "setting": "MRGPRX4; Conc. (Log[M]) −4.5", "result": 0.017}, {"measurement": "MRGPRX4 activation, fluorescence change (dF/F0), Average", "setting": "MRGPRX4; Conc. (Log[M]) −5", "result": 0.020}, {"measurement": "MRGPRX4 activation, fluorescence change (dF/F0), Average", "setting": "MRGPRX4; Conc. (Log[M]) −5.5", "result": 0.020}, {"measurement": "MRGPRX4 activation, fluorescence change (dF/F0), Average", "setting": "MRGPRX4; Conc. (Log[M]) −6", "result": 0.013}, {"measurement": "MRGPRX4 activation, fluorescence change (dF/F0), Average", "setting": "MRGPRX4; Conc. (Log[M]) −7", "result": 0.017}, {"measurement": "EC50", "setting": "MRGPRX4", "result": "> 100", "unit": "µM"}]}
{"compound": "C[C@H](CCC(=O)O)[C@H]1CC[C@H]2[C@@H]3CC[C@@H]4C[C@@H](O)CC[C@]4(C)[C@H]3C[C@@H](O)[C@]12C", "note": "[RC-6]", "values": [{"measurement": "Efficacy (maximum measured induction of NanoLuc, normalized to CDCA set as 100%)", "setting": "human FXR (NR1H4)", "result": "B (300%<efficacy <=400%)"}, {"measurement": "EC50", "setting": "human FXR (NR1H4)", "result": "1 to 10", "unit": "µM"}, {"measurement": "MRGPRX4 activation, fluorescence change (dF/F0), Average", "setting": "MRGPRX4; Conc. (Log[M]) −4", "result": 0.259}, {"measurement": "MRGPRX4 activation, fluorescence change (dF/F0), Average", "setting": "MRGPRX4; Conc. (Log[M]) −4.5", "result": 0.208}, {"measurement": "MRGPRX4 activation, fluorescence change (dF/F0), Average", "setting": "MRGPRX4; Conc. (Log[M]) −5", "result": 0.145}, {"measurement": "MRGPRX4 activation, fluorescence change (dF/F0), Average", "setting": "MRGPRX4; Conc. (Log[M]) −5.5", "result": 0.009}, {"measurement": "MRGPRX4 activation, fluorescence change (dF/F0), Average", "setting": "MRGPRX4; Conc. (Log[M]) −6", "result": "−0.013"}, {"measurement": "MRGPRX4 activation, fluorescence change (dF/F0), Average", "setting": "MRGPRX4; Conc. (Log[M]) −7", "result": "−0.007"}, {"measurement": "MRGPRX4 activation, fluorescence change (dF/F0), Average", "setting": "MRGPRX4; Conc. (Log[M]) −8", "result": "−0.015"}, {"measurement": "MRGPRX4 activation, fluorescence change (dF/F0), Average", "setting": "MRGPRX4; Conc. (Log[M]) −9", "result": "−0.008"}]}
{"compound": "CC[C@H]1[C@@H](O)[C@@H]2[C@H](CC[C@]3(C)[C@@H]([C@H](C)CCC(=O)NS(=O)(=O)CC)CC[C@@H]23)[C@@]2(C)CCCC[C@@H]12", "note": "[4-2]", "values": [{"measurement": "Efficacy (maximum measured induction of NanoLuc, normalized to CDCA set as 100%)", "setting": "human FXR (NR1H4)", "result": "B (300%<efficacy <=400%)"}, {"measurement": "EC50", "setting": "human FXR (NR1H4)", "result": "< 1", "unit": "µM"}, {"measurement": "MRGPRX4 activation, fluorescence change (dF/F0), Average", "setting": "MRGPRX4; Conc. (Log[M]) −4", "result": 0.113}, {"measurement": "MRGPRX4 activation, fluorescence change (dF/F0), Average", "setting": "MRGPRX4; Conc. (Log[M]) −4.5", "result": "−0.013"}, {"measurement": "MRGPRX4 activation, fluorescence change (dF/F0), Average", "setting": "MRGPRX4; Conc. (Log[M]) −5", "result": "−0.006"}, {"measurement": "MRGPRX4 activation, fluorescence change (dF/F0), Average", "setting": "MRGPRX4; Conc. (Log[M]) −5.5", "result": 0.015}, {"measurement": "MRGPRX4 activation, fluorescence change (dF/F0), Average", "setting": "MRGPRX4; Conc. (Log[M]) −6", "result": "−0.006"}, {"measurement": "MRGPRX4 activation, fluorescence change (dF/F0), Average", "setting": "MRGPRX4; Conc. (Log[M]) −7", "result": 0.009}, {"measurement": "MRGPRX4 activation, fluorescence change (dF/F0), Average", "setting": "MRGPRX4; Conc. (Log[M]) −8", "result": 0.009}, {"measurement": "MRGPRX4 activation, fluorescence change (dF/F0), Average", "setting": "MRGPRX4; Conc. (Log[M]) −9", "result": 0.002}, {"measurement": "EC50", "setting": "MRGPRX4", "result": "> 100", "unit": "µM"}]}
{"compound": "CC[C@H]1[C@@H](O)[C@@H]2[C@H](CC[C@]3(C)[C@@H]([C@H](C)CC(=O)O)CC[C@@H]23)[C@@]2(C)CCCC[C@@H]12", "note": "[compound 26]", "values": [{"measurement": "Efficacy (maximum measured induction of NanoLuc, normalized to CDCA set as 100%)", "setting": "human FXR (NR1H4)", "result": "C (100%<efficacy <=300%)"}, {"measurement": "EC50", "setting": "human FXR (NR1H4)", "result": "> 10", "unit": "µM"}, {"measurement": "MRGPRX4 activation, fluorescence change (dF/F0), Average", "setting": "MRGPRX4; Conc. (Log[M]) −4", "result": "−0.070"}, {"measurement": "MRGPRX4 activation, fluorescence change (dF/F0), Average", "setting": "MRGPRX4; Conc. (Log[M]) −4.5", "result": "−0.059"}, {"measurement": "MRGPRX4 activation, fluorescence change (dF/F0), Average", "setting": "MRGPRX4; Conc. (Log[M]) −5", "result": "−0.090"}, {"measurement": "MRGPRX4 activation, fluorescence change (dF/F0), Average", "setting": "MRGPRX4; Conc. (Log[M]) −5.5", "result": "−0.062"}, {"measurement": "MRGPRX4 activation, fluorescence change (dF/F0), Average", "setting": "MRGPRX4; Conc. (Log[M]) −6", "result": "−0.067"}, {"measurement": "MRGPRX4 activation, fluorescence change (dF/F0), Average", "setting": "MRGPRX4; Conc. (Log[M]) −7", "result": "−0.072"}, {"measurement": "MRGPRX4 activation, fluorescence change (dF/F0), Average", "setting": "MRGPRX4; Conc. (Log[M]) −8", "result": "−0.090"}, {"measurement": "MRGPRX4 activation, fluorescence change (dF/F0), Average", "setting": "MRGPRX4; Conc. (Log[M]) −9", "result": "−0.084"}, {"measurement": "EC50", "setting": "MRGPRX4", "result": "> 100", "unit": "µM"}]}
